# Patent US20160256433A1, “Formulations Containing Amorphous Dapagliflozin” (SANDOZ AG, priority 2013, published 2016)
# Read-outs that look alike come from different tables or passages of the source.
# Legend:
# [1] = for pH of suspension after 24 hours of testing: 37° C.
# physchem = conditions: for solubility at 24 h: thermodynamic from solid
# [2] = for water absorbed: at 80% relative air humidity (RH)
# [3] = medium of pH 1.2, 37 °C, pH 1.2, simulated gastric fluid
# [4] = medium of pH 6.8, 37 °C, pH 6.8, aqueous buffer
SMILES,pH of suspension after 24 hours of testing ([1]; medium pH 1.2),pH of suspension after 24 hours of testing ([1]; medium pH 6.8),pH of suspension after 24 hours of testing ([1]; medium water),solubility at 24 h (physchem; [3]),solubility at 24 h (physchem; [4]),"solubility at 24 h (physchem; water, 37 °C)",water absorbed [2],also measured
CCOc1ccc(Cc2cc([C@@H]3O[C@H](CO)[C@@H](O)[C@H](O)[C@H]3O)ccc2Cl)cc1,1.3,6.8,3.2,1700 µg/mL,1700 µg/mL,1800 µg/mL,around 0.8%,
"CCOc1ccc(Cc2cc([C@@H]3OC(CO)[C@@H](O)C(O)C3O)ccc2Cl)cc1 (stereo partly drawn) [amorphous dapagliflozine, (2S,3R,4R,5S,6R)-2-[4-chloro-3-(4-ethoxybenzyl)phenyl]-6-(hydroxymethyl)tetrahydro-2H-pyran-3,4,5-triole]",1.2,6.7,7.4,1200 µg/mL,1200 µg/mL,1200 µg/mL,around 6%,"Desciptive term (solubility) ([1]; medium pH 1.2): Slightly soluble; Desciptive term (solubility) ([1]; medium pH 3.0): Slightly soluble; pH of suspension after 24 hours of testing ([1]; medium pH 3.0): 2.9; Desciptive term (solubility) ([1]; medium pH 4.5): Slightly soluble; pH of suspension after 24 hours of testing ([1]; medium pH 4.5): 4.5; Desciptive term (solubility) ([1]; medium pH 6.8): Slightly soluble; Desciptive term (solubility) ([1]; medium pH 7.4): Very slightly soluble; pH of suspension after 24 hours of testing ([1]; medium pH 7.4): 7.2; Desciptive term (solubility) ([1]; medium water): Slightly soluble; solubility at 24 h (physchem; medium of pH 3.0, 37 °C, pH 3, aqueous buffer): 1100 µg/mL; solubility at 24 h (physchem; medium of pH 4.5, 37 °C, pH 4.5, aqueous buffer): 1200 µg/mL; solubility at 24 h (physchem; medium of pH 7.4, 37 °C, pH 7.4, aqueous buffer): 700 µg/mL; solubility (physchem; water): ~1000 µg/mL; water irreversibly absorbed ([2]; during the first sorption/desorption cycle): around 3%"
